Experimental data: patent US20230241257A1, “BIOTIN-MODIFIED DIMER AND USE THEREOF” (THE UNIVERSITY OF TOKYO, priority 2020, published 2023)

Tests used:
[1] = tested on: human stomach cancer cells (MKN-45); experiment: Experiment 11: pharmacokinetics (6 h) of Cupid-scFv antibody (24 h before)+^211At-psyche-B in MKN-45 cancer-bearing mouse models; type: in vivo, mice (BALB/cSlc nu/nu); conditions: six hours after administration, tumor on Day 8 after transplantation
Description: The present experiment used human stomach cancer cells (MKN-45) expressing carcinoembryonic antigen (CEA). 9-week-old male immunodeficient mice (BALB/cSlc nu/nu) were used. MKN-45 cells (1×10^7/0.1 ml) were transplanted into the mice's subcutis on the right shoulder dorsal side to produce cancer-bearing mouse models. When the tumor volume became a predetermined size (on Day 8 after the transplantation), the Cupid-scFv antibody was administered 100 μmol/0.1 ml via the caudal vein of each mouse. Twenty-four hours after administration of the Cupid-scFv antibody, ^211At-psyche-B (about 0.30 MBq/100 ml) was administered via the caudal vein of each mouse. […] After that, the weights of blood, plasma, urine, tumor, and normal tissues/organs were measured, and the radioactivity thereof was then measured using a γ counter. The amounts of the ^211At-psyche-B (radioactivity) accumulated in the blood, plasma, urine, tumor, and normal tissues/organs were calculated. […] Regarding accumulation of the ^211At-psyche-B in the thyroid gland, since the weight of the thyroid gland could not be precisely measured, it was shown that the rate (% ID) of the ^211At-psyche-B accumulated in the thyroid gland in the administered ^211At-psyche-B.

[2] = tested on: human stomach cancer cells (MKN-45); experiment: Experiment 5: pharmacokinetics of Cupid-scFv antibody (24 h before)+^211At-psyche-BR in MKN-45 cancer-bearing mouse models; type: in vivo, mice (BALB/cSlc nu/nu)
Description: The present experiment used human stomach cancer cells (MKN-45) expressing carcinoembryonic antigen (CEA). 9-week-old male immunodeficient mice (BALB/cSlc nu/nu) were used. MKN-45 cells (1×10^7/0.1 ml) were transplanted into the mice's subcutis on the right shoulder dorsal side to produce cancer-bearing mouse models. The mice were divided into four groups when the tumor volume became a predetermined size (on Day 13 after the transplantation). The Cupid-scFv antibody was administered in 100 μmol/0.1 ml via the caudal vein of each mouse. Twenty-four hours after administration of the Cupid-scFv antibody, ^211At-psyche-BR (about 0.25 MBq/100 ml) was administered via the caudal vein of each mouse. One minute, 1 hour, 6 hours, and 24 hours after administration of the ^211At-psyche-BR, the mice were euthanized by collecting whole blood from the heart of each mouse under isoflurane anesthesia, and tumor tissues and normal tissues/organs were then excised. Normal tissues/organs: skin (lower right limb), muscle (right gastrocnemius muscle), heart, lung, spleen, pancreas, white fat (upper portion of right side testis), testis (both sides), stomach, stomach contents, small intestine (including contents), large intestine (including contents), liver, brown fat (interscapular), submandibular gland, thyroid gland (together with trachea), bone (right femur), cerebrum, eyeballs (both sides), bladder, and urine; the remaining residues were divided into three equal parts, and the three equal parts were defined to be residue-1, residue-2, and residue-3. After that, the weights of blood, plasma, urine, tumor, and normal tissues/organs were measured, and the radioactivity thereof was then measured using a γ counter. The amounts of the ^211At-psyche-BR (radioactivity) accumulated in the blood, plasma, urine, tumor, and normal tissues/organs were calculated. That is to say, the rates (% ID/g) of the ^211At-psyche-BR accumulated per unit weight (g) of the blood, plasma, urine, tumor, and normal tissues/organs, in the administered ^211At-psyche-BR were shown. Regarding accumulation of the ^211At-psyche-BR in the thyroid gland, since the weight of the thyroid gland could not be precisely measured, it was shown that the rate (% ID) of the ^211At-psyche-BR accumulated in the thyroid gland in the administered ^211At-psyche-BR.

Q: With N=C1N[C@H]2[C@H](CS[C@H]2CCCCC(=O)NCCCCCC(=O)Nc2cc(NC(=O)CCCCCNC(=O)CCCC[C@@H]3SC[C@@H]4NC(=N)N[C@@H]43)cc(C(=O)NCCOCCOCCNC(=O)c3cccc([211At])c3)c2)N1 [^211At-psyche-B] as the compound, how does the “Accumulation in the tumor” value [1] read?
A: 25.8±1.5 % ID/g

Q: Which results are given for N=C1N[C@H]2[C@H](CS[C@H]2CCCCNC(=O)CCCCCC(=O)Nc2cc(NC(=O)CCCCCC(=O)NCCCC[C@@H]3SC[C@@H]4NC(=N)N[C@@H]43)cc(C(=O)NCCOCCOCCNC(=O)c3cccc([211At])c3)c2)N1 [^211At-psyche-BR]?
A: Accumulation in the kidney ([2]; after 1 minute): 28.6±1.3 % ID/g; Accumulation in the liver ([2]; after 1 minute): 13.3±2.2 % ID/g; Accumulation in the lung ([2]; after 1 minute): 14.4±1.6 % ID/g; Accumulation in the spleen ([2]; after 1 minute): 4.7±0.4 % ID/g; Accumulation in the tumor ([2]; after 1 minute): 0.6±0.1 % ID/g; Clearance from the blood ([2]; after 1 minute): 46.9±1.1 % ID/g; tumor-to-blood ratio ([2]; after 1 minute): 0.01±0.00; tumor-to-muscle ratio ([2]; after 1 minute): 1.22±0.05; Accumulation in the kidney ([2]; after 1 hour): 17.1±1.4 % ID/g; Accumulation in the liver ([2]; after 1 hour): 11.4±0.7 % ID/g; Accumulation in the lung ([2]; after 1 hour): 13.2±2.2 % ID/g; Accumulation in the spleen ([2]; after 1 hour): 7.1±0.2 % ID/g; Accumulation in the tumor ([2]; after 1 hour): 3.1±0.7 % ID/g; Clearance from the blood ([2]; after 1 hour): 39.5±5.2 % ID/g; tumor-to-blood ratio ([2]; after 1 hour): 0.08±0.02; tumor-to-muscle ratio ([2]; after 1 hour): 5.11±1.81; Accumulation in the kidney ([2]; after 6 hours): 9.5±0.2 % ID/g; Accumulation in the liver ([2]; after 6 hours): 12.8±0.2 % ID/g; Accumulation in the lung ([2]; after 6 hours): 9.1±1.0 % ID/g; Accumulation in the spleen ([2]; after 6 hours): 8.4±1.0 % ID/g; Accumulation in the tumor ([2]; after 6 hours): 9.3±0.6 % ID/g; Clearance from the blood ([2]; after 6 hours): 25.3±1.0 % ID/g; tumor-to-blood ratio ([2]; after 6 hours): 0.7±0.02; tumor-to-muscle ratio ([2]; after 6 hours): 12.80±1.86; Accumulation in the thyroid gland ([2]; after 24 h): 0.15±0.05 % ID; Accumulation in the kidney ([2]; after 24 hours): 5.4±0.5%; Accumulation in the liver ([2]; after 24 hours): 7.8±0.9%; Accumulation in the lung ([2]; after 24 hours): 5.3±0.1%; Accumulation in the spleen ([2]; after 24 hours): 5.5±1.1%; Accumulation in the tumor ([2]; after 24 hours): 18.4±2.5%; Clearance from the blood ([2]; after 24 hours): 8.3±0.5 % ID/g; amount administered excreted (blood) ([2]; after 24 hours): about 92%; tumor-to-blood ratio ([2]; after 24 hours): 2.23±0.41; tumor-to-muscle ratio ([2]; after 24 hours): 25.07±3.68
